# Assays:
# Assay type in all cases: cell-based
# [1] = target: T1, dopamine transporter (DAT) (Homo sapiens, UniProt Q01959); test: Dopamine reuptake inhibition, [3H]-DA, HEK-293 cells transfected with dopamine transporter cDNA; settings: compound 1 μM; 20-30 nM [3H]-DA; relative to control without compound = 100%; lower value = more inhibition
# T1 construct: expressed in transfected cells; host or cells: HEK-293
# In short: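 Transfected cells were preincubated with compound (1 μM screen) for 15 min at 37 °C, then given 20-30 nM tracer for 5 min at 37 °C, washed ice-cold and lysed in 1% SDS for radioactivity counting. Uptake was expressed as % of untreated control, and IC50 came from six concentrations, 1 nM to 1 μM.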
# [2] = target: T2, serotonin transporter (SERT) (Homo sapiens, UniProt P31645); test: Serotonin reuptake inhibition, [3H]-5-HT, HEK-293 cells transfected with 5-HT transporter cDNA; settings: compound 1 μM; [3H]-5-HT; relative to control without compound = 100%; lower value = more inhibition
# T2 construct: expressed in transfected cells; host or cells: HEK-293
# T2 sequence (P31645 whole entry, species assumed): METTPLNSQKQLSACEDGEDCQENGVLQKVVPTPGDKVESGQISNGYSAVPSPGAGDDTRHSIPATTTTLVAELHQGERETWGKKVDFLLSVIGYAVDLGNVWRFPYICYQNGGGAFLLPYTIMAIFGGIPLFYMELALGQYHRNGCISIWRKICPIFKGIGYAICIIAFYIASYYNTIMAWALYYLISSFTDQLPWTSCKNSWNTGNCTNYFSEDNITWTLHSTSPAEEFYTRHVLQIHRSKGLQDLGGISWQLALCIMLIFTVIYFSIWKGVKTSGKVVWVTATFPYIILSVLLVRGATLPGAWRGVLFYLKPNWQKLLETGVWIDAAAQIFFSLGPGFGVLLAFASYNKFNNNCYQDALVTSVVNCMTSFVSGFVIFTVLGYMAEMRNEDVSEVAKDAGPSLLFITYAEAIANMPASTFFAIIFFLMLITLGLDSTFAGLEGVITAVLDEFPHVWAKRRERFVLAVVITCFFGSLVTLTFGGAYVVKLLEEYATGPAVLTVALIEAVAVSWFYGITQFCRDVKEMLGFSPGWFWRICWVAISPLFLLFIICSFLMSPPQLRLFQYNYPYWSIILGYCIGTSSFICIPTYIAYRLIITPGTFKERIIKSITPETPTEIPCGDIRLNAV
# In short: (§1)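 HEK-293 cells transfected with SERT or NET cDNA were preincubated with compounds in uptake buffer for 15 min at 37 °C, then given [3H]-5-HT or [3H]-NE for 5 min at 37 °C. After ice-cold washes and 1% SDS lysis, retained radioactivity was expressed relative to the untreated control (100%). Screening was at 1 μM; IC50 came from six concentrations (1 nM–1 μM).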
# [3] = target: T3, norepinephrine transporter (NET) (Homo sapiens, UniProt P23975); test: Norepinephrine reuptake inhibition, [3H]-NE, HEK-293 cells transfected with NE transporter cDNA; settings: compound 1 μM; [3H]-NE; relative to control without compound = 100%; lower value = more inhibition
# T3 construct: expressed in transfected cells; host or cells: HEK-293
# T3 sequence (P23975 whole entry, species assumed): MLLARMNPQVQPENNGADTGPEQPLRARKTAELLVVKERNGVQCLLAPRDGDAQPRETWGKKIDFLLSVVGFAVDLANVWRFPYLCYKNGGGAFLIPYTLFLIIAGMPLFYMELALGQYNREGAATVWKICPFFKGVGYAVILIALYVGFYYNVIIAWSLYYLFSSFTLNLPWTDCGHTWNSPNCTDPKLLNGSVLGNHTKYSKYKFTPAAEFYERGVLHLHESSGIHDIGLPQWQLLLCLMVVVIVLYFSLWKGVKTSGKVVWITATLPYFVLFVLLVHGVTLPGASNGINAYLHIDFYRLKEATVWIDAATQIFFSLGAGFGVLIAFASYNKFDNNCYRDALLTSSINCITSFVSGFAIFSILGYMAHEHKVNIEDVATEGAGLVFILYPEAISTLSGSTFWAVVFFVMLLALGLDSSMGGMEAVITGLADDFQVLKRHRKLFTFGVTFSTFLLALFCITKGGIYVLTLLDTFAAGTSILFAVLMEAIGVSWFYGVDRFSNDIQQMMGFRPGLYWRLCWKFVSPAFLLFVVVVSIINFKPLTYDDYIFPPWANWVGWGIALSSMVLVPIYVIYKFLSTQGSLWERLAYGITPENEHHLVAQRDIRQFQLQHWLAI
# In short: as §1
# T1 sequence (Q01959 whole entry, species assumed): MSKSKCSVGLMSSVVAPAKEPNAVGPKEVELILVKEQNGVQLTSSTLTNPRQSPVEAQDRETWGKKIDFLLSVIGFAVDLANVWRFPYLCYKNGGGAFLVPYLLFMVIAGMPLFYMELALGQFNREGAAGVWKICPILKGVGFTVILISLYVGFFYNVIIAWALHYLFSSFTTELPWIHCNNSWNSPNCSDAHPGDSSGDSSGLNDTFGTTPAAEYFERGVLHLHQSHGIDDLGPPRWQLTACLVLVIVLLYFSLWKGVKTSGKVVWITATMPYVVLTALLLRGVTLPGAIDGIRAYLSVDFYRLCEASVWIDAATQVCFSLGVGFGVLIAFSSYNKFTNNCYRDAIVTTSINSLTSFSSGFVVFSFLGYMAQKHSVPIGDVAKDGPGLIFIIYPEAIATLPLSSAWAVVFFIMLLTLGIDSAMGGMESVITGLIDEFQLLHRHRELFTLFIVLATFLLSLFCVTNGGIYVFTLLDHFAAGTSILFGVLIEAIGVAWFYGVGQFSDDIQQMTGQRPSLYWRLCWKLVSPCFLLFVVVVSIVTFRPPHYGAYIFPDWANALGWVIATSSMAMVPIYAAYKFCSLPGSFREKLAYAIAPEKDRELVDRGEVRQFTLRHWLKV
Compound,Triple reuptake inhibition (Ratio %) DAT [1] [%],Triple reuptake inhibition (Ratio %) SERT [2] [%],Triple reuptake inhibition (Ratio %) NET [3] [%]
"O=S(=O)(NCCCCN1CCN(CCCc2ccccc2)CC1)c1ccc(-c2ccccc2)cc1 [Example 78, N-(4-(4-(3-phenylpropyl)piperazin-1-yl)butyl)-[1,1′-biphenyl]-4-sulfonamide]",25.52,32.90,44.79
"O=S(=O)(NCCCCN1CCC(CCCc2ccccc2)CC1)c1ccc(-c2ccccc2)cc1 [Example 79, N-(4-(4-(3-phenylpropyl)piperidin-1-yl)butyl)-[1,1′-biphenyl]-4-sulfonamide]",20.60,21.60,30.25
N-(3-(4-benzylpiperidin-1-yl)propyl)-4-butoxybenzenesulfineamide [Example 19],57.52,67.86,64.78

# Reference: patent US20230212121A1 (DAEGU-GYEONGBUK MEDICAL INNOVATION FOUNDATION, priority 2020, published 2023)
